tested on: α-SMA; assay: α-SMA expression inhibitory ability in MRC5 cell line (Western blotting); assay type: cell-based; details: TGF-β1 (10 ng/mL), 72 hours, relative to TGF-β1 only
Protocol: Subsequently, the inhibitory effect on pulmonary fibrosis of the compounds according to the present invention was overall evaluated. An MRC5 cell line was treated with each compound at 10 μM, and 2 hours later, treated with TGF-β1 (10 ng/mL). After 72 hours, the cells were lysed using RIPA Buffer, and then an α-SMA protein level was measured through Western blotting. The α-SMA expression level when treating the cells with each compound and TGF-β1 compared to the α-SMA expression level when treating the cells only with TGF-β1 without the compound was calculated as the α-SMA expression inhibitory ability of the corresponding compound. The α-SMA expression inhibitory ability of each compound is summarized in Table 2 below (A: inhibitory ability≥70%, B: 50%: inhibitory ability<70%, C: inhibitory ability<50%).

SMILES | inhibition at 10 µM [%]
CC(C(=O)N1CCN(c2ccc(F)cc2)c2cc(F)ccc21)N1CCN(C)CC1 (stereo not shown) [Compound 52, 1-(6-fluoro-4-(4-fluorophenyl)-3,4-dihydroquinoxaline-1(2H)-yl)-2-(4-methylpiperazin-1-yl)propan-1-one] | < 50
CN1CCN(CCC(=O)N2CCN(Cc3cccc(Cl)c3)c3ccccc32)CC1 [Compound 98, 1-(4-(3-chlorobenzyl)-3,4-dihydroquinoxaline-1(2H)-yl)-3-(4-methylpiperazin-1-yl)propan-1-one] | < 50
O=C(CCN1CCCCC1)N1CCN(CC2CC2)c2ccccc21 [Compound 162, 1-(4-(cyclopropylmethyl)-3,4-dihydroquinoxaline-1(2H)-yl)-3-(piperidin-1-yl)propan-1-one] | < 50
O=C(CCN1CCCCC1)N1CCN(Cc2ccccc2Cl)c2ccccc21 [Compound 88, 1-(4-(2-chlorobenzyl)-3,4-dihydroquinoxaline-1(2H)-yl)-3-(piperidin-1-yl)propan-1-one] | < 50
O=C(CCN1CCCC1)N1CCN(Cc2ccccn2)c2ccccc21 [Compound 114, 1-(4-(pyridin-2-ylmethyl)-3,4-dihydroquinoxaline-1(2H)-yl)-3-(pyrrolidin-1-yl)propan-1-one di-oxalate] | 50 to 70
O=C(CCN1CCOCC1)N1CCN(c2ccccc2)c2cc(F)ccc21 [Compound 2, 1-(6-fluoro-4-phenyl-3,4-dihydroquinoxaline-1(2H)-yl)-3-morpholinopropan-1-one] | < 50
CC(C)CN1CCN(C(=O)C(C)N2CCCCC2)c2ccccc21 (stereo not shown) [Compound 172, 1-(4-isobutyl-3,4-dihydroquinoxaline-1(2H)-yl)-2-(piperidin-1-yl)propan-1-one] | < 50
CC(C(=O)N1CCN(Cc2ccccc2)c2ccccc21)N1CCCCC1 (stereo not shown) [Compound 82, 1-(4-benzyl-3,4-dihydroquinoxaline-1(2H)-yl)-2-(piperidin-1-yl)propan-1-one] | < 50
O=C(CCN1CCN2CCCC2C1)N1CCN(c2ccc(F)cc2)c2ccccc21 (stereo not shown) [Compound 20, 1-(4-(4-fluorophenyl)-3,4-dihydroquinoxaline-1(2H)-yl)-3-(hexahydropyrrolo[1,2-a]pyrazin-2(1H)-yl)propan-1-one] | 50 to 70
CC(C)CN1CCN(C(=O)CN2CCCC2)c2ccccc21 [Compound 174, 1-(4-isobutyl-3,4-dihydroquinoxaline-1(2H)-yl)-2-(pyrrolidin-1-yl)ethan-1-one] | 50 to 70
O=C(CCc1cnc[nH]1)N1CCN(c2ccc(F)cc2)c2ccccc21 [Compound 29, 1-(4-(4-fluorophenyl)-3,4-dihydroquinoxaline-1(2H)-yl)-3-(1H-imidazol-5-yl)propan-1-one] | ≥ 70
CC(C)CN1CCN(C(=O)CCN2CCCCC2)c2ccccc21 [Compound 169, 1-(4-isobutyl-3,4-dihydroquinoxaline-1(2H)-yl)-3-(piperidin-1-yl)propan-1-one] | 50 to 70
CC(C(=O)N1CCN(c2ccccn2)c2ccccc21)N1CCCCC1 (stereo not shown) [Compound 150] | ≥ 70
O=C(CN1CCCCC1)N1CCN(c2ccccn2)c2ccccc21 [Compound 153, 2-(piperidin-1-yl)-1-(4-(pyridin-2-yl)-3,4-dihydroquinoxaline-1(2H)-yl)ethan-1-one] | ≥ 70
O=C(CCN1CCCC(O)C1)N1CCN(c2ccccc2)c2ccccc21 (stereo not shown) [Compound 58, 3-(3-hydroxypiperidin-1-yl)-1-(4-phenyl-3,4-dihydroquinoxaline-1(2H)-yl)propan-1-one] | 50 to 70
CN1CCN(CCC(=O)N2CCN(Cc3cccnc3)c3ccccc32)CC1 [Compound 121, 3-(4-methylpiperazin-1-yl)-1-(4-(pyridin-3-ylmethyl)-3,4-dihydroquinoxaline-1(2H)-yl)propan-1-one] | < 50
O=C(CCN1CCCCC1)N1CCN(c2ccncc2)c2ccccc21 [Compound 159, 3-(piperidin-1-yl)-1-(4-(pyridin-4-yl)-3,4-dihydroquinoxaline-1(2H)-yl)propan-1-one] | < 50
CN1CCN(CCC(=O)N2CCN(C(=O)c3ccccc3)c3ccccc32)CC1 [Compound 198, 1-(4-benzoyl-3,4-dihydroquinoxaline-1(2H)-yl)-3-(4-methylpiperazin-1-yl)propan-1-one] | < 50
CC(C)CN1CCN(C(=O)CN2CCN(C)CC2)c2ccccc21 [Compound 176, 1-(4-isobutyl-3,4-dihydroquinoxaline-1(2H)-yl)-2-(4-methylpiperazin-1-yl)ethan-1-one] | < 50
CC(C)N1CCN(C(=O)CN2CCCCC2)c2ccccc21 [Compound 184, 1-(4-isopropyl-3,4-dihydroquinoxaline-1(2H)-yl)-2-(piperidin-1-yl)ethan-1-one] | < 50

SMILES | inhibition at 10 µM [%]
O=C(CCN1CCCCC1)N1CCN(c2ccccc2Cl)c2ccccc21 [Compound 126, 1-(4-(2-chlorophenyl)-3,4-dihydroquinoxaline-1(2H)-yl)-3-(piperidin-1-yl)propan-1-one] | 50 to 70
CC(C)CN1CCN(C(=O)CN2CCCCC2)c2ccccc21 [Compound 175, 1-(4-isobutyl-3,4-dihydroquinoxaline-1(2H)-yl)-2-(piperidin-1-yl)ethan-1-one] | < 50
O=C(CN1CCN(c2ccccc2)c2ccccc21)N1CCN(C2CC2)CC1 [Compound 76, 1-(4-cyclopropylpiperazin-1-yl)-2-(4-phenyl-3,4-dihydroquinoxaline-1(2H)-yl)ethan-1-one] | < 50
O=C(CCN1CCCC1)N1CCN(c2ccc(Cl)cc2)c2ccccc21 [Compound 140, 1-(4-(4-chlorophenyl)-3,4-dihydroquinoxaline-1(2H)-yl)-3-(pyrrolidin-1-yl)propan-1-one] | < 50
O=C(CCN1CCOCC1)N1CCN(c2ccc(F)cc2)c2cc(F)ccc21 [Compound 37, 1-(6-fluoro-4-(4-fluorophenyl)-3,4-dihydroquinoxaline-1(2H)-yl)-3-morpholinopropan-1-one] | < 50
O=C(CCc1cnc[nH]1)N1CCN(c2ccc(F)cc2)c2cc(F)ccc21 [Compound 46, 1-(6-fluoro-4-(4-fluorophenyl)-3,4-dihydroquinoxaline-1(2H)-yl)-3-(1H-imidazol-5-yl)propan-1-one] | ≥ 70
CC(C)CN1CCN(C(=O)CCN2CCN(C)CC2)c2ccccc21 [Compound 170, 1-(4-isobutyl-3,4-dihydroquinoxaline-1(2H)-yl)-3-(4-methylpiperazin-1-yl)propan-1-one di L-tartrate] | 50 to 70
O=C(CN1CCCCC1)N1CCN(C(=O)c2ccccc2)c2ccccc21 [Compound 203, 1-(4-benzoyl-3,4-dihydroquinoxaline-1(2H)-yl)-2-(piperidin-1-yl)ethan-1-one] | < 50
O=C(CN1CCCC1)N1CCN(c2ccccn2)c2ccccc21 [Compound 152] | ≥ 70
O=C(CCN1CCCCC1)N1CCN(Cc2ccccc2)c2ccccc21 [Compound 79, 1-(4-benzyl-3,4-dihydroquinoxaline-1(2H)-yl)-3-(piperidin-1-yl)propan-1-one] | < 50
CC(C(=O)N1CCN(Cc2cccc(Cl)c2)c2ccccc21)N1CCN(C)CC1 (stereo not shown) [Compound 101, 1-(4-(3-chlorobenzyl)-3,4-dihydroquinoxaline-1(2H)-yl)-2-(4-methylpiperazin-1-yl)propan-1-one] | 50 to 70
CN1CCN(CCC(=O)N2CCN(C3CCCCC3)c3ccccc32)CC1 [Compound 188, 1-(4-cyclohexyl-3,4-dihydroquinoxaline-1(2H)-yl)-3-(4-methylpiperazin-1-yl)propan-1-one] | 50 to 70
CC(C(=O)N1CCN(c2ccc(F)cc2)c2cc(F)ccc21)N1CCCC1 (stereo not shown) [Compound 51, 1-(6-fluoro-4-(4-fluorophenyl)-3,4-dihydroquinoxaline-1(2H)-yl)-2-(pyrrolidin-1-yl)propan-1-one] | ≥ 70
CN1CCN(CCCN2CCN(c3ccc(F)cc3)c3ccccc32)CC1 [Compound 30, 1-(4-fluorophenyl)-4-(3-(4-methylpiperazin-1-yl)propyl)-1,2,3,4-tetrahydroquinoxaline] | ≥ 70
CC(C(=O)N1CCN(c2ccccc2Cl)c2ccccc21)N1CCN(C)CC1 (stereo not shown) [Compound 130, 1-(4-(2-chlorophenyl)-3,4-dihydroquinoxaline-1(2H)-yl)-2-(4-methylpiperazin-1-yl)propan-1-one] | 50 to 70
CC(C)N1CCN(C(=O)CCN2CCCCC2)c2ccccc21 [Compound 178, 1-(4-isopropyl-3,4-dihydroquinoxaline-1(2H)-yl)-3-(piperidin-1-yl)propan-1-one] | < 50
O=C(CCN1CCCC1)N1CCN(c2ccncc2)c2ccccc21 [Compound 158, 1-(4-(pyridin-4-yl)-3,4-dihydroquinoxaline-1(2H)-yl)-3-(pyrrolidin-1-yl)propan-1-one] | < 50
CC(C(=O)N1CCN(CC2CC2)c2ccccc21)N1CCCCC1 (stereo not shown) [Compound 165, 1-(4-(cyclopropylmethyl)-3,4-dihydroquinoxaline-1(2H)-yl)-2-(piperidin-1-yl)propan-1-one] | < 50
O=C(CCN1CCCCC1)N1CCN(Cc2ccncc2)c2ccccc21 [Compound 123, 3-(piperidin-1-yl)-1-(4-(pyridin-4-ylmethyl)-3,4-dihydroquinoxaline-1(2H)-yl)propan-1-one] | < 50
CC(C(=O)N1CCN(c2ccc(F)cc2)c2cc(F)ccc21)N1CCC[C@H]1C (stereo partly drawn) [Compound 54, 1-(6-fluoro-4-(4-fluorophenyl)-3,4-dihydroquinoxaline-1(2H)-yl)-2-((R)-2-methylpyrrolidin-1-yl)propan-1-one] | < 50
